Data from patent US9809557B2 (priority 2011, dated 2017).
≈ marks a conversion by molar mass, not a printed value.

Legend:
[1] = Precipitation on addition of acidic prodrug solution to phosphate buffer pH 7.4; type: physicochemical
Experimental: At appropriate time intervals, samples were withdrawn and centrifuged for 5 min at 13,000 rpm and the supernatant was analysed by HPLC for DPX-4-0001 and formed ketorolac. The HPLC method described in Example 26 was applied. […] A slight increase in the ketorolac concentration is the result of pH dependent hydrolysis of the prodrug bond (FIG. 3).
The pH in the suspension was measured to 7.0.

[2] = Stability of a suspension of DPX-4-0001 in 67 mM phosphate buffer pH 7.4 (comparison to SF); type: physicochemical; details: suspension in 67 mM phosphate buffer pH 7.4, 37° C.
Experimental: (§1) The stability of a suspension of DPX-4-0001 in 80% human synovial fluid pH 7.4 (SF) from arthritis patients was investigated at 37° C. The reaction was initiated by adding 5 ml preheated SF to 2 mg DPX-4-0001. At appropriate time intervals, 400 μl samples were taken and centrifuged for 5 min at 13.000 rpm and 200 μl of the supernatant was deproteinised with 400 μl acetonitrile. After centrifugation for 4 min at 13000 rpm, the supernatant was analysed by HPLC for DPX-4-0001 as well as formed ketorolac. The HPLC method described in Example 26 was applied.
For comparison, the stability of a suspension of DPX-4-0001 in 67 mM phosphate buffer pH 7.4 was investigated by the same procedure at 37° C. […] Since the synovial disappearance half-lives of small-molecule drugs are in the range 2-5 h, the concentration of the active agent in the joint space is determined by the prodrug properties (i) solubility, (ii) degree of protein binding, and (iii) rate of cleavage of the prodrug bond, as well as (iv) the administered dose.

[3] = Solubility at acidic pH, with and without DMA cosolvent; type: physicochemical
Experimental: A suspension of DPX-2-0007 (as hydrochloride salt) was formed by adding 30 mg to 4 mL demineralized water. After rotation of the suspension at 37° C. for 3 days, 1.0 mL sample was taken and after filtration (disposable syringe filters), the solution was diluted in methanol:water 1:1 and analyzed immediately by HPLC for prodrug. […] The pH in the solution was measured to 3.40. The following HPLC method was used: Merck Hitachi L 6200 pump connected to Merck Hitachi 4250 UV detector. Reversed phase chromatography was performed using a RP 18 Symmetry Shields® column (150×4.6 mm, 5 μm particles) equipped with a SecurityGuard precolumn (Phenomenex, Torrance, Calif., USA). […] The retention time of naproxen and DPX-2-0007 were 19 and 5.8 min, respectively.
A suspension of DPX-2-0006 was formed by adding 10 mg to 3 mL demineralized water, 0.05 mL 0.100 M HCl was added to obtain a pH of 3. After rotation of the suspension at 37° C. for 1 days, 0.5 mL sample was taken and after filtration (disposable syringe filters), the solution was diluted in methanol:water 1:1 and analyzed immediately by HPLC for prodrug. […] The HPLC method described in Example 29 was applied and the retention time of DPX-2-0006 was 14 min, respectively. N,N-dimethylacetamide (DMA) was added stepwise to the acidic suspension of DPX-2-0006 and the amount of DPX-2-000 dissolved in the presence of various volumes of DMA was determined after 1-3 days rotation at 37° C. as described above.

[4] = Stability of a suspension of prodrug in 80% human synovial fluid pH 7.4, formation of ketorolac; type: in vitro ADME; details: after 21 hours
Experimental: as §1

[5] = Solubility of the prodrugs in PBS (67 mM phosphate buffer pH 7.4)
Experimental: The determination of the solubility of a prodrug at different pH values of interest according to the present invention is carried by adding excess solid prodrug to a container containing a buffer solution with well-defined pH. The mixture is rotated at constant temperature until an equilibrium between solid prodrug and prodrug in solution has established (that is until the prodrug concentration in the supernatant remains constant). At each measurement the pH of the supernatant is controlled and, if needed, adjusted to the desired pH.
Suspensions of the prodrugs in 67 mM phosphate buffer pH 7.4 (PBS) were prepared by adding 10 mL PBS to approximately 5 mg prodrug. The suspensions were kept unstirred at 37° C. in an incubator hood. At appropriate time intervals over 23 days, about 500 μL samples were taken and after filtration (disposable syringe filters), the solutions were analyzed immediately by HPLC for parent drug and remaining prodrug. Quantitation of parent drug and prodrug was done from peak area measurements in relations to those of standards analysed by HPLC at the same conditions. […] For the diclofenac and ibuprofen prodrugs, the following method was used: Merck Hitachi L 6000 pump connected to Merck Hitachi 4250 UV detector. Reversed phase chromatography was performed using a C18 Gemini® RP column (150×4.6 mm, 5 μm particles) (Phenomenex, Torrance, Calif., USA) equipped with a SecurityGuard precolumn (Phenomenex, Torrance, Calif., USA). The flow rate was set at 1 mL/min and the column effluent was monitored at 230 nm. The mobile phase consisted of 35% (v/v) acetonitrile and 65% (v/v) of 0.1% (v/v) phosphoric acid pH 3.2. The retention times varied in the range of 3 to 30 min.
From the observed relatively stable concentration of dissolved prodrugs measured in the suspensions after 8-9 day up to 23 days, the solubilities of the prodrugs (Sprodrug) were determined.

[6] = pKa value; type: physicochemical

Which “dissolved prodrug concentration after initial precipitation phase” value ([1]; 67 mM phosphate buffer pH 7.4, over 25 h) does the source give for CN(C)c1ccc(CCOC(=O)C2CCn3c(C(=O)c4ccccc4)ccc32)cc1 (stereo not drawn) [DPX-4-0001, 4-(dimethylamino)phenethyl 5-benzoyl-2,3-dihydro-1H-pyrrolizine-1-carboxylate] here?
The value was “low and fairly constant concentration”.

And the “precipitation after addition to buffer” value ([1]; 300 μl of solution in 0.01 M HCl added to 5 ml 67 mM phosphate buffer pH 7.4, no esterases)?
The value was “a precipitation process was observed”.

And the “degradation of prodrug (to ketorolac) in phosphate buffer” value [2]?
Its value is “no significant degradation”.

What about the “final prodrug concentration in phosphate buffer” value [2] of the same molecule?
The value was “about 8×10^−7 M”.

What about the solubility ([3]; buffer solution, pH 2.02, aqueous buffer, thermodynamic from solid, pH 2.02, hydrochloride salt) of the same molecule?
Its solubility is 65 µg/mL.

What about the “fold decrease in solubility from pH 2.02 to pH 7.4” value ([3]; pH 2.02 vs pH 7.4) of the same molecule?
The value was 1300 fold.

And the “concentration of dissolved prodrug in SF” value ([4]; 80% human synovial fluid pH 7.4, 37° C.)?
Its value is “about 2.2×10^−5 M”.

What about the “conversion of the added amount of prodrug” value ([4]; 80% human synovial fluid, 37° C.) of the same molecule?
Its value is 28%.

And the solubility ([5]; 67 mM phosphate buffer (PBS), pH 7.4, aqueous buffer, thermodynamic from solid)?
The solubility was about 0.05 µg/mL (≈ 0.124 µM).

And the solubility thermodynamic ([5]; 67 mM phosphate buffer pH 7.4 (PBS), 37 °C, pH 7.4, aqueous buffer, thermodynamic from solid)?
The solubility thermodynamic was 0.1 ± 0.1 µM (≈ 0.0402 µg/mL).

And the “Sprodrug ± SD” value ([5]; PBS (67 mM phosphate buffer pH 7.4), 37° C.)?
The value was 0.05 ± 0.03 µg/mL.

And the pKa [6]?
The pKa was about 5.2.
